{
  "source": "patent US5244678A",
  "about": "“Pharmaceutical composition containing a local anesthetic and/or centrally acting analgesic encapsulated in liposomes” (Ire-Celltarg S.A., priority 1986, dated 1993)",
  "key": {"[1]": {"experiment": "Blood kinetics in whole blood after peridural injection in rabbits", "assay_type": "in vivo", "conditions": "rabbit", "protocol": "Biodistribution and pharmacokinetics of the liposomes which have incorporated bupivacaine, administered peridurally\nThe formation of MLVs takes place by adding 3 ml of 0.3M Tris-HCl buffer, pH 8, followed by 5 centrifugations at 5000 g in the same buffer.\nThe results are expressed as a percentage of the injected dose (ID) in the whole blood."}, "[2]": {"experiment": "Urinary excretion of radioactivity 2 hours after peridural injection", "assay_type": "in vivo", "conditions": "rabbit, mean ± standard deviation, n=3", "protocol": "Radioactivity excreted in the urine (ID×10^2) 2 hours after the peridural injection of [^3 H]Ch-labeled SUV, of MLV which has integrated ^3 H-labeled bupivacaine, or of non-encapsulated bupivacaine. Mean±standard deviation; the number in brackets=the number of animals."}, "[3]": {"experiment": "Biodistribution in the liver and heart 4 hours after peridural injection", "assay_type": "in vivo", "conditions": "rabbit, mean ± standard deviation, n=3", "protocol": "0.2 ml of the centrifugation pellet are administered peridurally to rabbits, under the same conditions as in Example 1.\nBy way of control, 4.5 mg of bupivacaine for clinical use (Marcaine®-Astra-[…] strength hydrochloride solution) is administered under the same conditions with or without adrenaline, and with the addition of 0.01 mCi of [^3 H]bupivacaine, this combination being present in a total 0.2 ml of solution.\nLikewise, by way of control, SUVs without bupivacaine are administered in the course of this study, under the conditions stated in Example 1.\nThe animals are sacrificed 120 and 240 minutes after the injection, and the organs and tissues are sampled under the same conditions as those of Example 1.\nBiodistribution of [^3 H]Ch SUV, of MLVS which have integrated [^3 H]bupivacaine, and of bupivacaine, in the liver and heart 4 hours after the peridural injection (ID×10^2)."}, "[4]": {"experiment": "Uptake by the nervous tissues after peridural injection", "assay_type": "in vivo", "conditions": "rabbit, mean ± standard deviation, n=3", "description": "Mean±standarddeviation; number in brackets=number of animals."}, "[5]": {"test_system": "tail of rats", "experiment": "Analgesic effect: threshold of the pain induced by an electric shock to the tail of rats", "assay_type": "in vivo", "conditions": "rat tail, point S2", "method": "The analgesic effect is measured by the increase in the threshold of the pain induced by an electric shock to the tail of rats.\nLipid film: Egg Pc/Chol, 4:3-60 mg of lipids (equivalent to 43.26 mg of egg Pc and 16.74 mg of Chol)+5 mg of bupivacaine base in lyophilized, liposoluble form. Formation of the liposomes: Suspension of the lipid film in the form of multilamellar liposomes in a 0.3M Tris-HCl buffer, pH 8 (3 ml). The liposomal suspension is centrifuged, and the liposomal pellet is injected as it is (0.5 ml) under the skin, in the rat's tail at a point S2.\nThe pain threshold is measured by electrical excitation at S2, and then at S1 (S1, situated 5 cm downstream from the injection point, serves for taking a reference with respect to the injection point, and also for measuring the possible diffusion of the product injected at S2)."}, "[6]": {"test_system": "motor fibers", "conditions": "bupivacaine used today in anesthesia; general knowledge; cited from earlier work"}},
  "note": "Entries after “also recorded” stand apart in the source; their conditions may differ.",
  "data": [
    {"compound": "CCCCN1CCCCC1C(=O)Nc1c(C)cccc1C", "note": "(stereo not drawn) [Bupivacaine, bupivacaine]", "values": [
      {"measurement": "highest blood level (blood peak)", "setting": "[1]", "result": "1.4 % of the injected dose"},
      {"measurement": "Radioactivity excreted in the urine", "setting": "[2]", "result": "11.633 ± 0.518", "unit": "ID×10^2"},
      {"measurement": "Biodistribution in the heart", "setting": "[3]", "result": "2.142 ± 0.301", "unit": "ID×10^2"},
      {"measurement": "Biodistribution in the liver", "setting": "[3]", "result": "20.477 ± 1.458", "unit": "ID×10^2"},
      {"measurement": "Uptake by brachial plexus", "setting": "[4]; 2 hrs", "result": "0.295 ± 0.048", "unit": "ID in 1 g×10^3"},
      {"measurement": "Uptake by cauda equina", "setting": "[4]; 2 hrs", "result": "0.485 ± 0.057", "unit": "ID in 1 g×10^3"},
      {"measurement": "Uptake by lumbar marrow", "setting": "[4]; 2 hrs", "result": "0.411 ± 0.094", "unit": "ID in 1 g×10^3"},
      {"measurement": "Uptake by sciatic nerve", "setting": "[4]; 2 hrs", "result": "0.281 ± 0.026", "unit": "ID in 1 g×10^3"},
      {"measurement": "Uptake by brachial plexus", "setting": "[4]; 4 hrs", "result": "1.136 ± 0.008", "unit": "ID in 1 g×10^3"},
      {"measurement": "Uptake by cauda equina", "setting": "[4]; 4 hrs", "result": "0.132 ± 0.035", "unit": "ID in 1 g×10^3"},
      {"measurement": "Uptake by lumbar marrow", "setting": "[4]; 4 hrs", "result": "0.169 ± 0.046", "unit": "ID in 1 g×10^3"},
      {"measurement": "Uptake by nerve roots", "setting": "[4]; 4 hrs", "result": "0.153 ± 0.023", "unit": "ID in 1 g×10^3"},
      {"measurement": "Uptake by sciatic nerve", "setting": "[4]; 4 hrs", "result": "0.132 ± 0.028", "unit": "ID in 1 g×10^3"},
      {"measurement": "time of rise of the pain threshold after injection", "setting": "[5]", "result": "less than one hour"},
      {"measurement": "effect on sensory and motor fibers", "setting": "[6]", "result": "blocks the sensory fibers and not the motor fibers; also recorded: affects motor fibers to only a small extent, if at all"}
    ]}
  ]
}
